Each structure is given as a SMILES string.

One test deals with hyperactivity. Put plainly: Open field test of methamphetamine-induced hyperactivity. The class given is in vivo, mouse. The note with it: open field 20 min after methamphetamine 4.0 mg/kg. How it is done: Before methamphetamine injection into each animal model, an open field test was conducted for 20 min to measure the activity of the animal model, which was used as a baseline.
4.0 mg/kg of methamphetamine was administered to the control group (Comparative group 1) and an open field test was again conducted for 20 min to measure the activity of the animal model.
4.0 mg/kg of methamphetamine was administered to the drug addiction animal model (MA) (Comparative group 2) and an open field test was again conducted for 20 min to measure the activity of the animal model.
Finally, the activity of each group was compared with the baseline and the activity increase was expressed as a percentage relative to the baseline.

Test [1] has as its system SYNCRIP. As to the kind of experiment: SYNCRIP expression in brain striatum by qPCR. The note with it: drug addiction animal model (MA) vs control group. On the technique in general: Real-time PCR tracks product formation cycle by cycle.
In test [2] the test system is egocentric spatial learning. As to the kind of experiment: Water cross maze test of egocentric spatial learning. The note with it: probe test after 3 days learning; lentivirus injected into striatum after drug addiction.
For test [3], the system named is SYNCRIP. As to the kind of experiment: SYNCRIP expression in brain striatum by Western blotting. The note with it: drug addiction animal model (MA) vs control group. Background: A western blot detects proteins with antibodies after separation by electrophoresis.
The test system of test [4] is miR-137. As to the kind of experiment: Serum miR-137 (qPCR) in mild drug-addicted animal model with striatal SYNCRIP overexpression. The note with it: mild drug addiction: methamphetamine 1.0 mg/kg i.p. once every other day for 2 weeks; lentivirus into striatum 4 weeks before.
For test [5], the system named is miR-137. As to the kind of experiment: miR-137 expression (qPCR) in striatum and serum of methamphetamine drug addiction animal model. The note with it: drug addiction animal model (MA) vs control group, gradual ramp-up protocol, one week withdrawal.
Test [6] has as its system miR-137. As to the kind of experiment: Serum miR-137 (qPCR) in drug-addicted (gradual ramp-up) animal model with striatal SYNCRIP overexpression. The note with it: gradual ramp-up methamphetamine protocol, one week withdrawal; lentivirus into striatum 4 weeks before.

As to `CN[C@@H](C)Cc1ccccc1` [methamphetamine], the “hyperactivity (activity increase relative to baseline)” value with hyperactivity is listed as “significantly increased”. In the test on SYNCRIP [1], the “expression level of SYNCRIP in brain striatum (qPCR)” value is “decreased but was significantly higher”. For the same compound, the “egocentric spatial learning (percent of mice)” value in test [2] is recorded as “abnormally enhanced”. In addition, the “expression level of SYNCRIP in brain striatum (Western blotting)” value in the test with SYNCRIP [3] was “decreased to a significantly lower level”. Besides, the “expression level of serum miR-137” value with miR-137 [4] is “significantly low”. Besides, the “expression level of miR-137 in serum” value is “significantly low” with miR-137 [5] (serum) and “significantly reduced” in the test on miR-137 [6]. Besides, the “expression level of miR-137 in striatum” value in the test on miR-137 [5] (striatum) is listed as “significantly high”.
